Assay results: patent US6897198B2, “Method of treatment with combinations of statin and aryl-substituted propanolamine derivatives” (Aventis Pharma Deutschland GmbH, priority 1998, dated 2005)

Columns and labels:
[1] = biological target: T1, Na+-dependent bile acid transport system (Oryctolagus cuniculus, UniProt Q28727); test: Inhibition of Na+-dependent [3H]-taurocholate uptake in rabbit ileum cuticular layer membrane vesicles; assay type: biochemical; details: Table 1, 50 μM taurocholate, incubation normally 1 minute
T1 construct: Cuticular layer membrane vesicles were prepared from ileum cells by the so-called Mg^2+ precipitation method; from tissue; host or cells: terminal ileum of male New Zealand rabbits (brush-border / cuticular layer membrane vesicles)
T1 sequence (Q28727 1-347): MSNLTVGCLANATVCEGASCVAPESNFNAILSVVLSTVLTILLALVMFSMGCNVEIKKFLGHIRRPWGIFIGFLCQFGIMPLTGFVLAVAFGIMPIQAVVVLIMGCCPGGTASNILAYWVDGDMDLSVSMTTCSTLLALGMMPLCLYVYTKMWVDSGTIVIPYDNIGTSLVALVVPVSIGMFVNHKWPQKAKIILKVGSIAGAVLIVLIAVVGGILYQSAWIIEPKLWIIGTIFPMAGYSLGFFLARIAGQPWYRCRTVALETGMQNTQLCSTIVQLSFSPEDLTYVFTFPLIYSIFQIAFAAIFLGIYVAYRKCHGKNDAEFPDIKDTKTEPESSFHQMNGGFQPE
Protocol: The compounds according to the invention were tested in a biotest by determining the inhibition of [^3H]-taurocholate uptake in rabbit ileum cuticular layer membrane vesicles. The inhibitory test was carried out as follows:
1. Preparation of Rabbit Ileum Cuticular Layer Membrane Vesicles
Cuticular layer membrane vesicles were prepared from ileum cells by the so-called Mg^2+ precipitation method. Male New Zealand rabbits (body weight 2 to 2.5 kg) were sacrificed by intravenous injection of 0.5 ml T61®, an aqueous solution of 2.5 mg of tetracaine —HCl, 100 mg of embutramide and 25 mg of mebezonium iodide. The ileum was removed and washed with ice-cold physiological saline. The terminal 7/10th of the ileum (measured in the oral-rectal direction, i.e., the terminal ileum, which contains the active Na^+-dependent bile acid transport system) were used for preparing the cuticular layer membrane vesicles. The intestines were frozen in polymer bags at −80° C. under nitrogen. To prepare the membrane vesicles, the frozen intestines were defrosted in a water bath at 30° C. The mucosa was scraped off and suspended in 60 ml of ice-cold 12 mM TRIS/HCl buffer (pH 7.1)/300 mM mannitol, 5 mM EGTA/10 mg/l phenylmethylsulfonyl fluoride/1 mg/l soybean trypsin inhibitor (32 (U/mg)/0.5 mg/l bovine lung trypsin inhibitor (193 U/mg)/5 mg/l bacitracin. After the mixture had been diluted to 300 ml with ice-cold distilled water, it was homogenized in an Ultraturrax (rod 18, IKA Werk Staufen, Germany) for 3 minutes at 75% of maximum speed, with ice-cooling. After 3 ml of 1 M MgCl2 solution had been added (final concentration 10 mM), the mixture was left to stand at 0° C. for exactly 1 minute. The addition of Mg^2+ causes the cell membranes to aggregate and precipitate with the exception of the cuticular layer membranes. After centrifugation for 15 minutes at 3000×g (5000 rpm, SS-34 rotor), the precipitate was discarded, and the supernatant, which contains the cuticular layer membranes, was centrifuged for 30 minutes at 48,000×g (20,000 rpm, SS-34 rotor). The supernatant was discarded, and the precipitate was rehomogenized in 60 ml of 12 mM TRIS/HCl buffer (pH 7.1)/60 mM mannitol, 5 mM EGTA using a Potter Elvejhem homogenizer (Braun, Melsungen, 900 rpm, 10 strokes). After addition of 0.1 ml of 1 M MgCl2 solution and incubation for 15 minutes at 0° C., the mixture was again centrifuged for 15 minutes at 3000×g. The supernatant was subsequently centrifuged for a further 30 minutes at 48,000×g (20,000 rpm, SS-34 rotor). […]
The uptake of substrates into the above-described cuticular layer membrane vesicles was determined by means of the so-called membrane filtration technique. […]

gallstone-sensitive mice = test: Test for gallstone formation (cholesterol gallstone formation, lithogenic diet); assay type: in vivo; details: male C57L mice, 100 mg/kg/d (0.1% in the feed), 13 weeks, lithogenic diet alone 5/15
Protocol: Test for Gallstone Formation • 1. Test Substance, Dose and Application • Example 9 of Table 1 (=A1) 100 mg/kg/d 0.1% in the feed • 2. Aim
In this test, the cholesterol gallstone formation in gallstone-sensitive mice was investigated. • 3. Materials and Methods • 3.1 Animals and Housing
The experimental animals used are male C57L mice (Jackson Laboratories) with an average body weight of 25-30 g at the beginning of the adaptation.
The animals were randomly divided into 4 groups (n=10, groups 2 and 3 n=15). Starting at the beginning of the treatment, the mice were either fed a standard rodent feed by Altromin (group 1), or a lithogenic diet by Altromin (groups 2-4); this diet was composed as follows: 15% butter, 1% cholesterol, 50% sugar, 20% casein, 0.5% cholic acid, 5% mineral mix, 2.5% vitamin mix, 2% corn oil, corn starch to 100%. The animals were weighed weekly, and the food consumption was determined by continuous weighings before and after, whereby the dose was calculated. • 3.2. Final Examination
After 11 and 13 weeks, respectively, the animals of each group were sacrificed and the gallbladders subsequently prepared. Gallstones in the gallbladder were then recorded. The gallbladder was dissected, the weight was determined, and the composition of the bile and the gallstones was analyzed.

| Compound | Bio. Test (quotient of the IC50Na values of the reference substance taurochenodesoxycholate (TCDC) and the test substance) [1] | Frequency of gallstones (n/n) (gallstone-sensitive mice) |
| --- | --- | --- |
| O=C(NCCCNc1ccccc1[C@@H](Nc1ccccn1)[C@H](c1ccccn1)[C@H](O)c1ccccc1)[C@H](O)[C@@H](O)[C@H](O)[C@H](O)CO [Example 2] | 0.24 | – |
| CC(=O)OC[C@@H](OC(C)=O)[C@@H](OC(C)=O)[C@H](OC(C)=O)[C@@H](OC(C)=O)C(=O)NCCCCCCCCCCC(=O)Nc1ccccc1[C@@H](Nc1ccccn1)[C@H](c1ccccn1)[C@H](O)c1ccccc1 [Example 8] | 0.83 | – |
| O=C(CCCCCCCCCCNC(=O)[C@H](O)[C@@H](O)[C@H](O)[C@H](O)CO)Nc1ccccc1[C@@H](Nc1ccccn1)[C@H](c1ccccn1)[C@H](O)c1ccccc1 [Example 9] | 1.78 | 0/10 |
| O=C(CCC(=O)Nc1ccccc1[C@@H](Nc1ccccn1)[C@H](c1ccccn1)[C@H](O)c1ccccc1)NC[C@H](O)[C@@H](O)[C@H](O)[C@H](O)CO [Example 15] | 0.19 | – |
